Measurements published in patent publication US20240415785A1, “USE OF D-ARABITOL IN LIPID-LOWERING AND HEPATOPROTECTION” (NANJING UNIVERSITY OF CHINESE MEDICINE, priority 2022, published 2024).

Experiments:
Assay type in all cases: in vivo
[1] = tested on: C57 BL/6 J male mice with the high-fat diet; test: Body weight ratio of mice with the high-fat diet; conditions: high-fat feed, 12 weeks, compared with model group
Experimental: (§1) D-arabitol, L-arabitol, L-arabinose, D-arabinose, and D-xylitol each were prepared with sterile distilled water into a 50 g/L or 20 g/L solution.
(§2) A total of 64 SPF-grade 8-week-old C57 BL/6 J male mice were adaptively raised for 3 d with a normal diet in a barrier facility having an independently-ventilated cage (IVC), tested for an initial body weight, and randomly divided into 8 groups. On day 4, the mice in the 8 groups were administered with a normal feed or a high-fat feed, and drinking water for mice in an administration group was replaced with drug-containing water. Each mouse had free access to food and drinking water, and a body weight was recorded weekly. The grouping, diets, and administration were as follows: • (1) normal diet group (Chow): normal feed+sterile distilled water; • (2) high-fat diet group (HFD): high-fat feed+sterile distilled water; • (3) 50 g/L L-arabitol group (HFD+50 g/L L-Arabitol): high-fat feed+50 g/L L-arabitol; • (4) 20 g/L D-arabitol group (HFD+20 g/L D-Arabitol): high-fat feed+20 g/L D-arabitol; • (5) 50 g/L D-arabitol group (HFD+50 g/L D-Arabitol): high-fat feed+50 g/L D-arabitol; • (6) 50 g/L L-arabinose group (HFD+50 g/L L-Arabinose): high-fat feed+50 g/L L-arabinose; • (7) 50 g/L D-arabinose group (HFD+50 g/L D-Arabinose): high-fat feed+50 g/L D-arabinose; and • (8) 50 g/L xylitol group (HFD+50 g/L Xylitol): high-fat feed+50 g/L xylitol.
Mouse body weight ratio: a body weight at the nth week (g)×100%/an initial body weight (g). Data was subjected to statistical tests with Graphpad Prism v9.0. Two-way ANOVA and Tukey's multiple comparison tests were adopted for body weight data, and one-way ANOVA and Dunnett's multiple comparison tests were adopted for other data.

[2] = tested on: C57 BL/6 J male mice with the high-fat diet; test: Liver histopathology (H&E staining) of mice with the high-fat diet; conditions: high-fat feed
Experimental: as §1, §2
(§3) At the end of the experiment, each mouse was anesthetized by intraperitoneal injection of sodium pentobarbital with a concentration of 5 mg/mL, the injection volume was 0.1 mL/10 g, and the injection dose was 50 mg/kg, and then blood was collected from the orbit. The mouse was sacrificed through cervical dislocation, and a liver was collected, rinsed with normal saline, and dried with a filter paper. A liver lobe was taken and fixed in paraformaldehyde. The remaining liver was quickly frozen with liquid nitrogen, and stored at −80° C. The blood was allowed to stand for 30 min and then centrifuged at 3,500 rpm for 10 min to obtain a supernatant, and the supernatant was collected and stored at −80° C.
A liver tissue that had been fixed with 4% paraformaldehyde was taken and subjected to gradient dehydration in the dehydrator as follows: in 75% ethanol for 4 h, in 85% ethanol for 2 h, in 90% ethanol for 2 h, in 95% ethanol for 1 h, in absolute ethanol I for 30 min, and in absolute ethanol II for 30 min. A tissue obtained after complete dehydration was permeabilized 1 time with a mixed solution of absolute ethanol and xylene mixed in equal volumes, and then permeabilized 2 times with pure xylene for about 5 min to 10 min each time. […]

[3] = tested on: C57 BL/6 J male mice with the high-fat diet; test: Blood lipid levels (total TG, LDL-c, HDL-c) in serum of mice with the high-fat diet; conditions: high-fat feed, compared with high-fat diet group
Experimental: as §1, §2, §3
A serum sample was taken, thawed at 4° C., and tested for serum HDL-c, LDL-c, total TG, ALT, and aspartate aminotransferase (AST) according to instructions of kits.

[4] = tested on: patient with a high blood or liver lipid level; test: Lipid-lowering method in patient or individual with a high blood or liver lipid level
Source text: A lipid-lowering method was provided, including: a drug was orally administered to or injected into a patient with a high blood or liver lipid level, where an active ingredient of the drug was D-arabitol.
A lipid-lowering method was provided, including: an individual with a high blood or liver lipid level was allowed to take a health care product or a food, where the health care product or the food included D-arabitol as an active ingredient.

[5] = tested on: C57 BL/6 J male mice with the high-fat diet; test: Serum ALT level of mice with the high-fat diet; conditions: high-fat feed 12 weeks, compared with high-fat diet group
Experimental: as §1
as §2, with “xylitol. […]” for “xylitol.”

[6] = tested on: C57 BL/6 J male mice with the high-fat diet; test: Total cholesterol (TC) level in liver of mice with the high-fat diet; conditions: high-fat feed 12 weeks, compared with high-fat diet group
Experimental: as §1
as §2, with “xylitol. […]” for “xylitol.”

[7] = tested on: patient with a liver damage caused by a high blood or liver lipid level; test: Hepatoprotection method in patient or individual with a liver damage caused by a high blood or liver lipid level
Source text: A hepatoprotection method was provided, including: a drug was orally administered to or injected into a patient with a liver damage caused by a high blood or liver lipid level, where an active ingredient of the drug was D-arabitol.
A hepatoprotection method was provided, including: an individual with a liver damage caused by a high blood or liver lipid level was allowed to take a health care product or a food, where the health care product or the food included D-arabitol as an active ingredient.

Question: For `O=C[C@H](O)[C@@H](O)[C@@H](O)CO` [L-arabinose], which body weight ratio ([1]; 50 g/L in drinking water) is on record?
Answer: did not have an effect of making a body weight ratio of mice significantly decrease

Question: With `OC[C@H](O)C(O)[C@@H](O)CO` [L-arabitol, reference compound] as the compound, how does the body weight ratio ([1]; 50 g/L in drinking water) read?
Answer: did not have an effect of making a body weight ratio of mice significantly decrease

Question: What about the “liver cell structures, H&E staining (liver damage)” value ([2]; 50 g/L in drinking water) of the same compound?
Answer: liver cell structures disappeared

Question: What about the “white vacuoles (lipid droplets) in the liver tissue, H&E staining” value ([2]; 50 g/L in drinking water) of the same compound?
Answer: no significant white vacuoles

Question: For `O=C[C@@H](O)[C@H](O)[C@H](O)CO` [D-arabinose], which body weight ratio ([1]; 50 g/L in drinking water) is on record?
Answer: did not have an effect of making a body weight ratio of mice significantly decrease

Question: Which results are given for `OC[C@@H](O)C(O)[C@H](O)CO` [D-arabitol]?
Answer: HDL-c concentration in serum ([3]; 20 g/L in drinking water): significantly reduce; LDL-c concentration in serum ([3]; 20 g/L in drinking water): significantly reduce; HDL-c concentration in serum ([3]; 50 g/L in drinking water): significantly reduce; LDL-c concentration in serum ([3]; 50 g/L in drinking water): significantly reduce; total TG in serum ([3]; 50 g/L in drinking water): decreased significantly; blood or liver lipid level in the patient ([4]; drug orally administered or injected, patient with a high blood or liver lipid level (Example 2)): decreased effectively; blood or liver lipid level in the individual ([4]; health care product or food taken by individual with a high blood or liver lipid level (Example 4)): decreased effectively; body weight ratio ([1]; 20 g/L in drinking water): start to significantly decrease from week 8; body weight ratio ([1]; 50 g/L in drinking water): start to significantly decrease from week 4; serum ALT concentration ([5]; 20 g/L in drinking water): significantly reduce; serum ALT concentration ([5]; 50 g/L in drinking water): significantly reduce; accumulation of TC in the liver ([6]; 20 g/L in drinking water): significantly reduce; accumulation of TC in the liver ([6]; 50 g/L in drinking water): significantly reduce; liver function in the patient ([7]; drug orally administered or injected, patient with a liver damage caused by a high blood or liver lipid level (Example 3)): improved effectively; liver function in the individual ([7]; health care product or food taken by individual with a liver damage caused by a high blood or liver lipid level (Example 5)): improved effectively; white vacuoles (lipid droplets) in the liver tissue, H&E staining ([2]; 20 g/L in drinking water): no obvious white vacuoles; white vacuoles (lipid droplets) in the liver tissue, H&E staining ([2]; 50 g/L in drinking water): no obvious white vacuoles

Question: `OC[C@@H](O)[C@H](O)[C@@H](O)CO` [xylitol, Xylitol] was tested. Which body weight ratio ([1]; 50 g/L in drinking water) did it give?
Answer: did not have an effect of making a body weight ratio of mice significantly decrease
